Data as given in PubChem BioAssay (NCI).
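Growth conditions: 96-well plates. Treatment: test compound, 48 hours, 5 concentrations. Analysis: linear interpolation between bracketing concentrations; unreached endpoints set to highest concentration. The concentration for 50% growth inhibition is given as GI50. TGI is the concentration that stops growth completely.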

Legend:
Assay in all cases: DTP human tumour cell line panel, 48 h
HCT-116 colon = tested on: HCT-116 colon
RPMI-8226 leukemia = tested on: RPMI-8226 leukemia
MDA-MB-231 breast = tested on: MDA-MB-231 breast
HCT-15 colon = tested on: HCT-15 colon
MCF7 breast = tested on: MCF7 breast
UO-31 renal = tested on: UO-31 renal
M14 melanoma = tested on: M14 melanoma
OVCAR-5 ovarian = tested on: OVCAR-5 ovarian
SNB-19 CNS = tested on: SNB-19 CNS
SK-MEL-28 melanoma = tested on: SK-MEL-28 melanoma
BT-549 breast = tested on: BT-549 breast
HOP-92 NSCLC = tested on: HOP-92 NSCLC
IGROV1 ovarian = tested on: IGROV1 ovarian
SF-539 CNS = tested on: SF-539 CNS
HS 578T breast = tested on: HS 578T breast
HCC-2998 colon = tested on: HCC-2998 colon
HOP-62 NSCLC = tested on: HOP-62 NSCLC
786-0 renal = tested on: 786-0 renal
OVCAR-4 ovarian = tested on: OVCAR-4 ovarian
NCI/ADR-RES ovarian = tested on: NCI/ADR-RES ovarian
CCRF-CEM leukemia = tested on: CCRF-CEM leukemia
NCI-H226 lung = tested on: NCI-H226 lung
MOLT-4 leukemia = tested on: MOLT-4 leukemia
EKVX NSCLC = tested on: EKVX NSCLC
DU-145 prostate = tested on: DU-145 prostate
SK-MEL-2 melanoma = tested on: SK-MEL-2 melanoma
RXF 393 renal = tested on: RXF 393 renal
MALME-3M melanoma = tested on: MALME-3M melanoma

With `O=S(=O)(Nc1ccc(I)c(Cl)c1)c1ccc(-c2cnc(C3CC3)o2)cc1` the GI50 (HCT-116 colon) was 1.13 µM, the TGI (HCT-116 colon) was 11.9 µM and the GI50 (RPMI-8226 leukemia) was 2.61 µM. It also gave a TGI (RPMI-8226 leukemia) of 23.1 µM, a GI50 (MDA-MB-231 breast) of 3.96 µM and a TGI (MDA-MB-231 breast) of 19.4 µM. It also gave a GI50 (HCT-15 colon) of 0.582 µM, a TGI (HCT-15 colon) of 12.3 µM and a GI50 (MCF7 breast) of 0.454 µM. For the same compound, the TGI (MCF7 breast) was 12 µM, the GI50 (UO-31 renal) was 2.71 µM and the TGI (UO-31 renal) was 15.5 µM. The GI50 (M14 melanoma) was 0.969 µM, the TGI (M14 melanoma) was 12.3 µM and the GI50 (OVCAR-5 ovarian) was 3.06 µM. For the same compound, the TGI (OVCAR-5 ovarian) was 13.3 µM, the GI50 (SNB-19 CNS) was 1.69 µM and the TGI (SNB-19 CNS) was 17 µM. It also gave a GI50 (SK-MEL-28 melanoma) of 3.13 µM, a TGI (SK-MEL-28 melanoma) of 19.9 µM and a GI50 (BT-549 breast) of 1.37 µM. It also gave a TGI (BT-549 breast) of 16 µM, a GI50 (HOP-92 NSCLC) of 0.434 µM and a TGI (HOP-92 NSCLC) of 5.76 µM. For the same compound, the GI50 (IGROV1 ovarian) was 1.45 µM, the TGI (IGROV1 ovarian) was 16.6 µM and the GI50 (SF-539 CNS) was 1.26 µM. It also gave a TGI (SF-539 CNS) of 5.23 µM, a GI50 (HS 578T breast) of 0.416 µM and a TGI (HS 578T breast) of 3.01 µM. It also gave a GI50 (HCC-2998 colon) of 2.37 µM, a TGI (HCC-2998 colon) of 11.2 µM and a GI50 (HOP-62 NSCLC) of 1.59 µM. It also gave a TGI (HOP-62 NSCLC) of 17.6 µM, a GI50 (786-0 renal) of 2.57 µM and a TGI (786-0 renal) of 17.2 µM. It also gave a GI50 (OVCAR-4 ovarian) of 3.3 µM, a TGI (OVCAR-4 ovarian) of 14.9 µM and a GI50 (NCI/ADR-RES ovarian) of 0.761 µM. For the same compound, the TGI (NCI/ADR-RES ovarian) was 6.82 µM, the GI50 (CCRF-CEM leukemia) was 0.877 µM and the TGI (CCRF-CEM leukemia) was 23.1 µM. The GI50 (NCI-H226 lung) was 3.97 µM, the TGI (NCI-H226 lung) was 18.9 µM and the GI50 (MOLT-4 leukemia) was 1.39 µM. It also gave a TGI (MOLT-4 leukemia) of 22.5 µM, a GI50 (EKVX NSCLC) of 2.85 µM and a TGI (EKVX NSCLC) of 15.7 µM. The GI50 (DU-145 prostate) was 2.63 µM, the TGI (DU-145 prostate) was 11.8 µM and the GI50 (SK-MEL-2 melanoma) was 1.31 µM. The TGI (SK-MEL-2 melanoma) was 16.7 µM, the GI50 (RXF 393 renal) was 1.49 µM and the TGI (RXF 393 renal) was 7.55 µM. For the same compound, the GI50 (MALME-3M melanoma) was 1.5 µM and the TGI (MALME-3M melanoma) was 23 µM.
